Laboratory results as given in patent US10870634B2, “Histone demethylase inhibitors” (CELGENE QUANTICEL RESEARCH, INC., priority 2016, dated 2020).

The compounds below were run against T1, Jarid1B (Homo sapiens, UniProt Q9UGL1) (assay: Jarid1B in vitro enzyme inhibition assay (TR-FRET)). Conditions: 0.8 nM Jarid1B, 300 nM H3K4me3-biotin peptide, 2 μM alpha-ketoglutaric acid.
T1 construct: purchased BPS Bioscience (or custom made by MolecularThroughput) 50121
T1 sequence (Q9UGL1 2-751): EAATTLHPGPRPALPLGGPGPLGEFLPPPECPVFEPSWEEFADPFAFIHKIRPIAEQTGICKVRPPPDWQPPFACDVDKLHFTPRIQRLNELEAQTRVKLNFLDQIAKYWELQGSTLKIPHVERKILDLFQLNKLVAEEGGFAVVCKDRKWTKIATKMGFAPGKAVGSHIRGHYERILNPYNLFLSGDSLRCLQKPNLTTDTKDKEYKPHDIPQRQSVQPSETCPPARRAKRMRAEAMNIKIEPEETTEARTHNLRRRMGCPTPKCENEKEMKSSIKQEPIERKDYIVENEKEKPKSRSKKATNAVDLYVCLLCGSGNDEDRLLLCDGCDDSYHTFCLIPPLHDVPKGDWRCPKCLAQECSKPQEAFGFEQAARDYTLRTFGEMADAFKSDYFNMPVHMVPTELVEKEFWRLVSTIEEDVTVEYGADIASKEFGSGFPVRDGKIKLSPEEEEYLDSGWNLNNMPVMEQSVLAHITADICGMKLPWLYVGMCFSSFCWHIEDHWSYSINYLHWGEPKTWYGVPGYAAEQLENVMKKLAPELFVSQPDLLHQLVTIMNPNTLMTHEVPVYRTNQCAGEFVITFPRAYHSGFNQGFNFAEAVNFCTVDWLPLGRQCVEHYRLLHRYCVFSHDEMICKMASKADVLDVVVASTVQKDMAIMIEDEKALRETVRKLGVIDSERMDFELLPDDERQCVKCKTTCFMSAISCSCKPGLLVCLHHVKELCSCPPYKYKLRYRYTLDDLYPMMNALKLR
Assay type: biochemical
Excerpt: This assay determines the ability of a test compound to inhibit Jarid1B, JMJD2C and JMJD3 demethylase activity. Baculovirus-expressed Jarid1B (GenBank Accession # NM-006618, AA 2-751) was purchased from BPS Bioscience (Cat #50121) or custom made by MolecularThroughput. Baculovirus-expressed JMJD2C (GenBank Accession # BC143571, AA 2-372) was purchased from BPS Bioscience (Cat #50105). Baculovirus-expressed JMJD3 (GenBank Accession # NM_001080424, AA1043-end) was purchased from BPS Bioscience (Cat #50115).
The ability of test compounds to inhibit the activity of Jarid1B was determined in 384-well plate format under the following reaction conditions: 0.8 nM Jarid1B, 300 nM H3K4me3-biotin labeled peptide (Anaspec cat #64357), 2 μM alpha-ketoglutaric acid in assay buffer of 50 mM HEPES, pH 7.3, 0.005% Brij35, 0.5 mM TCEP, 0.2 mg/ml BSA, 50 μM sodium L-ascorbate, and […] ammonium ironII sulfate. Reaction product was determined quantitatively by TR-FRET after the addition of detection reagent Phycolink Streptavidin-allophycocyanin (Prozyme) and Europium-anti-mono-or di-methylated historic H3 lysine 4 (H3K4me1-2) antibody (PerkinElmer) in the presence of 5 mM EDTA in LANCE detection buffer (PerkinElmer) at a final concentration of 25 nM and 1 nM, respectively.
The assay reaction was initiated by the following: 2 μl of the mixture of 900 nM H3K4me3-biotin labeled peptide and 6 μM alpha-ketoglutaric acid with 2 μl of 11-point serial diluted inhibitor in 3% DMSO was added to each well of the plate, followed by the addition of 2 μl of 2.4 nM Jarid1B to initiate the reaction. […] Plates were read by EnVisionMultilabel Reader in TR-FRET mode (excitation at 320 nm, emission at 615 nm and 665 nm) after 1 hr incubation at room temp. A ratio was calculated (665/615) for each well and fitted to determine inhibition constant (IC50).
The ability to inhibit demethylase activity was quantified and the respective IC50 value was determined for substituted triazolylpyridine derivative compounds. […]

IC50, > 10 µM:
Fc1ccc(Cl)cc1Nc1cnccc1-c1nn[nH]c1C(F)(F)F [Example 2, N-(5-chloro-2-fluorophenyl)-4-[5-(trifluoromethyl)-1H-1,2,3-triazol-4-yl]pyridin-3-amine]
FC(F)(F)c1[nH]nnc1-c1ccncc1NCC1CCCc2ccccc21 (stereo not drawn) [Example 3, N-[(1,2,3,4-tetrahydronaphthalen-1-yl)methyl]-4-[5-(trifluoromethyl)-1H-1,2,3-triazol-4-yl]pyridine-3-amine]
Fc1cnccc1-c1nn[nH]c1C(F)(F)F [Example 1, 3-fluoro-4-[5-(trifluoromethyl)-1H-1,2,3-triazol-4-yl]pyridine]
